How the values were obtained:
Assay in all cases: relative viability (nuclei count vs DMSO), 5 days (fraction); higher = more cells survive
BI-D1870 + AZD7762 = compound: CC(C)CCN1c2nc(Nc3cc(F)c(O)c(F)c3)ncc2N(C)C(=O)C1C [BI-D1870] + NC(=O)Nc1cc(-c2cccc(F)c2)sc1C(=O)N[C@H]1CCCNC1 [AZD7762] (partner 0.2 µM)
Method in brief: (§1)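 After 5 days of treatment, lung cancer cells in 1536-well plates were fixed and stained in a single step (final 0.05% Triton X-100, 1% formaldehyde, 1 ug/ml Hoechst) and their nuclei counted on 4× images. Treatment had been applied by pin tool the day after seeding as one drug alone or as a fixed anchor-drug dose with five library-drug doses (not always all listed) in √10 steps. Relative viability is the nuclei count of treated wells divided by that of vehicle wells, and values are medians of duplicate plates.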

BI-D1870 + Pictilisib = compound: CC(C)CCN1c2nc(Nc3cc(F)c(O)c(F)c3)ncc2N(C)C(=O)C1C [BI-D1870] + CS(=O)(=O)N1CCN(Cc2cc3nc(-c4cccc5[nH]ncc45)nc(N4CCOCC4)c3s2)CC1 [Pictilisib] (partner 1 µM)
Method in brief: as §1

Zebularine + Phenformin = compound: O=c1ncccn1[C@@H]1O[C@H](CO)[C@@H](O)[C@H]1O [Zebularine] + N=C(N)NC(=N)NCCc1ccccc1 [Phenformin] (partner 250 µM)
Method in brief: as §1

BI-D1870 + Trametinib = compound: CC(C)CCN1c2nc(Nc3cc(F)c(O)c(F)c3)ncc2N(C)C(=O)C1C [BI-D1870] + CC(=O)Nc1cccc(-n2c(=O)n(C3CC3)c(=O)c3c(Nc4ccc(I)cc4F)n(C)c(=O)c(C)c32)c1 [Trametinib] (partner 0.02 µM)
Method in brief: as §1

Cell Line	relative viability (BI-D1870 + AZD7762; first compound 0.04 µM)	relative viability (BI-D1870 + AZD7762; first compound 0.1265 µM)	relative viability (BI-D1870 + AZD7762; first compound 0.4 µM)	relative viability (BI-D1870 + AZD7762; first compound 1.265 µM)	relative viability (BI-D1870 + AZD7762; first compound 4 µM)	relative viability (BI-D1870 + Pictilisib; first compound 0.04 µM)	relative viability (BI-D1870 + Pictilisib; first compound 0.1265 µM)	relative viability (BI-D1870 + Pictilisib; first compound 0.4 µM)	relative viability (BI-D1870 + Pictilisib; first compound 1.265 µM)	relative viability (BI-D1870 + Pictilisib; first compound 4 µM)	relative viability (Zebularine + Phenformin; first compound 1 µM)	relative viability (Zebularine + Phenformin; first compound 3.162 µM)	relative viability (Zebularine + Phenformin; first compound 10 µM)	relative viability (Zebularine + Phenformin; first compound 31.62 µM)	relative viability (Zebularine + Phenformin; first compound 100 µM)	relative viability (BI-D1870 + Trametinib; first compound 0.04 µM)	relative viability (BI-D1870 + Trametinib; first compound 0.1265 µM)	relative viability (BI-D1870 + Trametinib; first compound 0.4 µM)	relative viability (BI-D1870 + Trametinib; first compound 1.265 µM)	relative viability (BI-D1870 + Trametinib; first compound 4 µM)
NCI-H838	0.994	0.909	0.893	1.04	0.947	0.442	0.421	0.529	0.498	0.574	0.695	0.668	0.549	0.509	0.285	0.597	0.444	0.536	0.667	0.523
NCI-H1755	0.417	0.412	0.407	0.486	0.404	0.474	0.408	0.469	0.431	0.35	0.671	0.612	0.592	0.684	0.53	0.758	0.774	0.74	0.831	0.739
HCC-78	0.677	0.593	0.528	0.815	0.598	0.213	0.185	0.249	0.21	0.236	0.678	0.728	0.496	0.74	0.387	0.526	0.655	0.675	1.03	0.569
IA-LM	–	–	–	–	–	0.406	0.294	0.268	0.196	0.106	–	–	–	–	–	–	–	–	–	–
NCI-H322M	0.591	0.558	0.611	0.684	0.656	0.579	0.526	0.411	0.526	0.475	0.816	0.747	0.568	0.73	0.671	0.437	0.537	0.524	0.508	0.495
COR-L23	–	–	–	–	–	1.08	0.695	0.743	0.732	0.643	0.468	0.438	0.312	0.284	0.165	0.75	0.536	0.589	0.622	0.572
NCI-H2023	–	–	–	–	–	0.271	0.199	0.221	0.235	0.153	0.475	0.443	0.213	0.23	0.208	0.537	0.389	0.578	0.516	0.349
COR-L 105	–	–	–	–	–	0.4	0.405	0.407	0.474	0.386	0.581	0.488	0.314	0.575	0.53	0.428	0.409	0.487	0.419	0.458
NCI-H520	–	–	–	–	–	0.317	0.275	0.348	0.36	0.233	0.76	0.6	0.313	0.332	0.206	0.645	0.627	0.683	0.612	0.302
SK-LU-1	–	–	–	–	–	0.543	0.544	0.604	0.576	0.343	0.633	0.552	0.313	0.493	0.33	0.553	0.403	0.372	0.515	0.408
NCI-H2342	0.493	0.609	0.392	0.803	0.667	–	–	–	–	–	0.635	0.528	0.49	0.73	0.59	0.794	0.805	0.881	1	1.01
NCI-H1299	–	–	–	–	–	0.801	0.774	0.653	0.514	0.19	–	–	–	–	–	–	–	–	–	–
NCI-H1650	–	–	–	–	–	0.632	0.484	0.527	0.533	0.558	0.493	0.476	0.307	0.492	0.353	0.705	0.551	0.573	0.64	0.552
NCI-H2009	–	–	–	–	–	0.949	0.77	0.719	0.633	0.318	0.515	0.483	0.425	0.435	0.336	0.299	0.221	0.248	0.289	0.198
SW 900	0.81	0.589	0.526	0.661	0.594	–	–	–	–	–	0.809	0.559	0.349	0.65	0.407	0.883	0.83	0.858	0.762	0.984
SK-MES-1	–	–	–	–	–	0.345	0.332	0.291	0.308	0.23	0.755	0.693	0.45	0.362	0.226	0.541	0.532	0.518	0.471	0.307
NCI-H1648	0.67	0.677	–	0.646	0.57	–	–	–	–	–	–	–	–	–	–	0.445	0.54	–	0.552	0.49
NCI-H522	0.84	0.845	0.851	0.935	0.911	–	–	–	–	–	0.589	0.631	0.622	0.656	0.65	0.69	0.764	0.722	0.836	0.776
A549	–	–	–	–	–	0.725	0.499	0.369	0.465	0.0705	0.209	0.171	0.169	0.131	0.122	–	–	–	–	–
NCI-H661	–	–	–	–	–	0.377	0.44	0.36	0.505	0.313	0.279	0.269	0.28	0.275	0.264	0.607	0.499	0.598	0.589	0.472
NCI-H1563	–	–	–	–	–	0.674	0.617	0.604	0.693	0.681	0.684	0.674	0.647	0.702	0.661	–	–	–	–	–
ABC-1	0.805	0.82	0.796	0.791	0.895	0.751	0.673	0.633	0.744	0.566	0.237	0.229	0.255	0.179	0.222	–	–	–	–	–
